The values below come from ChEMBL document CHEMBL4673355, “Thiacalixarene based quaternary ammonium salts as promising antibacterial agents” (Bioorg Med Chem, 2021).

One series deals with Klebsiella pneumoniae. Kind of series: Antibacterial activity against Klebsiella pneumoniae ATCC 10031 assessed as reduction in bacterial growth incubated for 24 hrs by CLSI broth microdilution method. The format is functional. (In broth dilution the organism is exposed to a series of concentrations in liquid medium.)
The subject of series [1] is Pseudomonas aeruginosa. Kind of series: Antibacterial activity against Pseudomonas aeruginosa ATCC 9027 assessed as reduction in bacterial growth incubated for 24 hrs by CLSI broth microdilution method. It counts as functional.
For series [2], the system named is Escherichia coli. Kind of series: Antibacterial activity against Escherichia coli ATCC 25922 assessed as reduction in bacterial growth incubated for 24 hrs by CLSI broth microdilution method. The format is functional. The conditions noted are these: Escherichia coli, ATCC 25922, 24 h, read-out: MIC.
Series [3] concerns Staphylococcus aureus. Kind of series: Antibacterial activity against Staphylococcus aureus ATCC 6538 incubated for 24 hrs by CLSI broth microdilution method. It counts as functional.
The subject of series [4] is Escherichia coli. Kind of series: Bactericidal activity against Escherichia coli ATCC 25922. It counts as functional.
Series [5] has as its system Staphylococcus aureus. Kind of series: Antibacterial activity against Staphylococcus aureus ATCC 29213 by CLSI broth microdilution method. The format is functional.
The subject of series [6] is Staphylococcus aureus. Kind of series: Bactericidal activity against Staphylococcus aureus ATCC 29213. It counts as functional.
The test system of series [7] is Staphylococcus aureus. Kind of series: Bactericidal activity against Staphylococcus aureus ATCC 29213 assessed as reduction in bacterial growth incubated for 24 hrs followed by replating on MH broth and further incubated for 24 hrs by CLSI broth microdilution method. The format is functional. The note with it: Staphylococcus aureus, ATCC 29213; time 48 hrs; read-out: MBC.

A short description of series [8]: Selectivity index, ratio of CC50 for human HSF cells to MIC for Staphylococcus epidermidis. It counts as toxicity.
Series [9] can be described thus: Selectivity index, ratio of CC50 for human HSF cells to MIC for Bacillus subtilis 168. It counts as toxicity.
Series [10] concerns Staphylococcus epidermidis. Kind of series: Bactericidal activity against Staphylococcus epidermidis assessed as reduction in bacterial growth incubated for 24 hrs followed by replating on MH broth and further incubated for 24 hrs by CLSI broth microdilution method. It counts as functional. The note with it: Staphylococcus epidermidis, read-out: MBC.
Another series has as its system Bacillus subtilis. Kind of series: Bactericidal activity against Bacillus subtilis 168 assessed as reduction in bacterial growth incubated for 24 hrs followed by replating on MH broth and further incubated for 24 hrs by CLSI broth microdilution method. It counts as functional. The conditions noted are these: Bacillus subtilis, 168, 24 h.
The subject of series [11] is Pseudomonas aeruginosa. Kind of series: Antibacterial activity against Pseudomonas aeruginosa ATCC 27853 assessed as reduction in bacterial growth incubated for 24 hrs by CLSI broth microdilution method. The format is functional. The note with it: Pseudomonas aeruginosa, ATCC 27853, 24 h, read-out: MIC.

Several values for one entry are separate records, joined by “and”; a condition that tells them apart may be missing. Identical values can stand only once.

The term MIC denotes the smallest concentration in the dilution series that meets the test's criterion for growth inhibition. Regarding `CCCCCCCCOc1c2cc(C[n+]3ccn(C)c3)cc1Cc1cc(C[n+]3ccn(C)c3)cc(c1OCCCCCCCC)Cc1cc(C[n+]3ccn(C)c3)cc(c1OCCCCCCCC)Cc1cc(C[n+]3ccn(C)c3)cc(c1OCCCCCCCC)C2.[Cl-].[Cl-].[Cl-].[Cl-]`, the MIC in the series on Klebsiella pneumoniae is above 1000 µg/mL; with Pseudomonas aeruginosa [1], 500 µg/mL; with Escherichia coli [2], 1000 µg/mL; against Staphylococcus aureus [3] it was above 1000 µg/mL.

What is called MBC is the smallest concentration meeting the test's criterion for killing. For the compound `CCCCCCCCOc1c2cc(C[N+](C)(C)CCO)cc1Cc1cc(C[N+](C)(C)CCO)cc(c1OCCCCCCCC)Cc1cc(C[N+](C)(C)CCO)cc(c1OCCCCCCCC)Cc1cc(C[N+](C)(C)CCO)cc(c1OCCCCCCCC)C2.[Cl-].[Cl-].[Cl-].[Cl-]`, the MIC with Klebsiella pneumoniae is above 1000 µg/mL; in the series with Pseudomonas aeruginosa [1] it was 500 µg/mL; in the series with Escherichia coli [2] it was 32 µg/mL; against Staphylococcus aureus [3], above 1000 µg/mL; in the series on Staphylococcus aureus [5], 16 µg/mL. The results for the MBC against Escherichia coli [4] and in the series on Staphylococcus aureus [6] were 256 µg/mL and 16 µg/mL, respectively.

`CC(C)(C)c1cc2c(OCC(=O)NCCC[N+](C)(C)C)c(c1)Sc1cc(C(C)(C)C)cc(c1OCC(=O)NCCC[N+](C)(C)C)Sc1cc(C(C)(C)C)cc(c1OCC(=O)NCCC[N+](C)(C)C)Sc1cc(C(C)(C)C)cc(c1OCC(=O)NCCC[N+](C)(C)C)S2.[Cl-].[Cl-].[Cl-].[Cl-]`: the minimum bactericidal concentration (MBC) is above 64 µg/mL in the series with Staphylococcus aureus [7], 32 µg/mL in series [10] and 8 µg/mL in the series with Bacillus subtilis. Besides, the Ratio is 11 in [8]; > 16 and 43 in [9]. The selectivity ratio in series [8] (HSF cells) was above 16. For the same compound, the minimal inhibitory concentration (MIC) in the series on Escherichia coli [2] and in the series on Pseudomonas aeruginosa [11] was above 64 µg/mL each time.

On to `CCCOc1c2cc(C[N+](C)(C)CCN)cc1Cc1cc(C[N+](C)(C)CCN)cc(c1OCCC)Cc1cc(C[N+](C)(C)CCN)cc(c1OCCC)Cc1cc(C[N+](C)(C)CCN)cc(c1OCCC)C2.[Cl-].[Cl-].[Cl-].[Cl-]`, for which the minimal inhibitory concentration (MIC) with Klebsiella pneumoniae is 500 µg/mL; in the series with Pseudomonas aeruginosa [1], 50 µg/mL; with Escherichia coli [2], 500 µg/mL; against Staphylococcus aureus [3], at most 10 µg/mL.

In the case of `CCCOc1c2cc(C[N+](C)(C)CCO)cc1Cc1cc(C[N+](C)(C)CCO)cc(c1OCCC)Cc1cc(C[N+](C)(C)CCO)cc(c1OCCC)Cc1cc(C[N+](C)(C)CCO)cc(c1OCCC)C2.[Cl-].[Cl-].[Cl-].[Cl-]`, the MIC with Klebsiella pneumoniae was 100 µg/mL; in the series on Pseudomonas aeruginosa [1], 1000 µg/mL; in the series with Escherichia coli [2] it was 32 µg/mL; against Staphylococcus aureus [3], at most 10 µg/mL; in the series with Staphylococcus aureus [5], 16 µg/mL. In addition, the MBC against Escherichia coli [4] was 256 µg/mL; in the series on Staphylococcus aureus [6], 16 µg/mL.
